System: hemoglobin-haptoglobin complex
Experiment: Stability of hemoglobin (as hemoglobin-haptoglobin complex) in samples preserved at 37° C. in preservation solution containing 1 unit/L haptoglobin, Hb measured by latex agglutination method (Examples 1 to 7)
Parameters: species or system human
Settings: for Hb concentration / Recovery ratio with respect to Hb concentration after 0 days: 37° C.
Experimental: Preservation solutions were prepared with the addition of 40 mmol/L HEPES (pH 6.8), 0.1% BSA, 0.1% NaN3, 1 unit/L haptoglobin, and 0 to 100 mmol/L phenylboronic acid. Samples obtained by adding hemoglobin-added fecal specimens to the preservation solutions so that the fecal concentration would be 0.5% were preserved at 37° C. for 0, 7, 14, and 21 days. The fecal specimens were added with hemoglobin having an amount such that the hemoglobin concentration in the samples would be about 300 μg/L. Instead of the fecal specimens to which hemoglobin was added, samples containing no fecal specimens, in which hemoglobin was added to the preservation solutions so that the hemoglobin concentration in the samples would be 300 μg/L, were similarly preserved. The hemoglobin (Hb) concentrations (μg/L) in the preserved samples were measured by the latex agglutination method.
The concentrations of hemoglobin were measured using “OC-Hemodia (registered trademark) Auto III ‘EIKEN’” (available from EIKEN CHEMICAL CO., LTD.) as a measurement reagent and “OC-sensor DIANA” (available from EIKEN CHEMICAL CO., LTD.) as a measurement device. The above measurement reagent contains latex particles immobilizing an anti-human hemoglobin rabbit polyclonal antibody.
From the measured concentrations of hemoglobin, the recovery ratios (%) were calculated with respect to the hemoglobin concentrations immediately after the fecal specimens were added to the preservation solutions (i.e., concentrations 0 days after the fecal specimens were added).
(§1) For comparative examples, preservation solutions to which no arylboronic acid was added were prepared, and testing was conducted in the same manner.
The concentration of phenylboronic acid in the preservation solutions of Example 1 was fixed to 15 mmol/L, preservation solutions to which a sugar (sorbitol, sucrose, trehalose, glucose, fructose, or mannitol) was further added at 50 mmol/L or 100 mmol/L or preservation solutions to which no sugar was added were prepared, and testing was conducted in the same manner as in Example 1. For comparative examples, preservation solutions to which the phenylboronic acid and sugar were not added were prepared, and testing was conducted in the same manner.
Preservation solutions in which sorbitol, sucrose, trehalose, glucose, fructose, or mannitol was added at 100 mmol/L to the preservation solutions of Example 1 containing no phenylboronic acid were prepared, and testing was conducted in the same manner as in Example 1. For comparison, the same testing was conducted without adding these sugars.
The concentration of phenylboronic acid in the preservation solutions of Example 1 was fixed to 15 mmol/L, preservation solutions to which sorbitol was added at 10 to 500 mmol/L or sucrose was added at 10 to 250 mmol/L or preservation solutions to which no sugar was added were prepared, and testing was conducted in the same manner as in Example 1. For comparative examples, preservation solutions to which the phenylboronic acid and sugar were not added were prepared, and testing was conducted in the same manner.
as §1

[1] = Feces 1, sugar 50 mmol/L + phenylboronic acid 15 mmol/L, 0 days
[2] = Feces 1, sugar 50 mmol/L + phenylboronic acid 15 mmol/L, 7 days
[3] = Feces 1, sugar 50 mmol/L + phenylboronic acid 15 mmol/L, 14 days
[4] = Feces 1, sugar 50 mmol/L + phenylboronic acid 15 mmol/L, 21 days
[5] = Feces 1, sugar 100 mmol/L + phenylboronic acid 15 mmol/L, 0 days
[6] = Feces 1, sugar 100 mmol/L + phenylboronic acid 15 mmol/L, 7 days
[7] = Feces 1, sugar 100 mmol/L + phenylboronic acid 15 mmol/L, 14 days
[8] = Feces 1, sugar 100 mmol/L + phenylboronic acid 15 mmol/L, 21 days
[9] = Feces 1, sugar 100 mmol/L, no phenylboronic acid, 0 days
[10] = Feces 1, sugar 100 mmol/L, no phenylboronic acid, 7 days
[11] = Feces 1, sugar 100 mmol/L, no phenylboronic acid, 14 days
[12] = Feces 1, sugar 100 mmol/L, no phenylboronic acid, 21 days
[13] = Feces 2, sugar 50 mmol/L + phenylboronic acid 15 mmol/L, 0 days
[14] = Feces 2, sugar 50 mmol/L + phenylboronic acid 15 mmol/L, 7 days
[15] = Feces 2, sugar 50 mmol/L + phenylboronic acid 15 mmol/L, 14 days
[16] = Feces 2, sugar 50 mmol/L + phenylboronic acid 15 mmol/L, 21 days
[17] = Feces 2, sugar 100 mmol/L + phenylboronic acid 15 mmol/L, 0 days
[18] = Feces 2, sugar 100 mmol/L + phenylboronic acid 15 mmol/L, 7 days
[19] = Feces 2, sugar 100 mmol/L + phenylboronic acid 15 mmol/L, 14 days
[20] = Feces 2, sugar 100 mmol/L + phenylboronic acid 15 mmol/L, 21 days
[21] = Feces 2, sugar 100 mmol/L, no phenylboronic acid, 0 days
[22] = Feces 2, sugar 100 mmol/L, no phenylboronic acid, 7 days
[23] = Feces 2, sugar 100 mmol/L, no phenylboronic acid, 14 days
[24] = Feces 2, sugar 100 mmol/L, no phenylboronic acid, 21 days
[25] = Feces 3, sugar 50 mmol/L + phenylboronic acid 15 mmol/L, 0 days
[26] = Feces 3, sugar 50 mmol/L + phenylboronic acid 15 mmol/L, 7 days
[27] = Feces 3, sugar 50 mmol/L + phenylboronic acid 15 mmol/L, 14 days
[28] = Feces 3, sugar 50 mmol/L + phenylboronic acid 15 mmol/L, 21 days
[29] = Feces 3, sugar 100 mmol/L + phenylboronic acid 15 mmol/L, 0 days
[30] = Feces 3, sugar 100 mmol/L + phenylboronic acid 15 mmol/L, 7 days
[31] = Feces 3, sugar 100 mmol/L + phenylboronic acid 15 mmol/L, 14 days
[32] = Feces 3, sugar 100 mmol/L + phenylboronic acid 15 mmol/L, 21 days
[33] = Feces 3, sugar 100 mmol/L, no phenylboronic acid, 0 days
[34] = Feces 3, sugar 100 mmol/L, no phenylboronic acid, 7 days
[35] = Feces 3, sugar 100 mmol/L, no phenylboronic acid, 14 days
[36] = Feces 3, sugar 100 mmol/L, no phenylboronic acid, 21 days
[37] = No feces, sugar 50 mmol/L + phenylboronic acid 15 mmol/L, 0 days
[38] = No feces, sugar 50 mmol/L + phenylboronic acid 15 mmol/L, 7 days
[39] = No feces, sugar 50 mmol/L + phenylboronic acid 15 mmol/L, 14 days
[40] = No feces, sugar 50 mmol/L + phenylboronic acid 15 mmol/L, 21 days
[41] = No feces, sugar 100 mmol/L + phenylboronic acid 15 mmol/L, 7 days
[42] = No feces, sugar 100 mmol/L + phenylboronic acid 15 mmol/L, 14 days
[43] = No feces, sugar 100 mmol/L + phenylboronic acid 15 mmol/L, 21 days
[44] = No feces, sugar 100 mmol/L, no phenylboronic acid, 0 days
[45] = No feces, sugar 100 mmol/L, no phenylboronic acid, 7 days
[46] = No feces, sugar 100 mmol/L, no phenylboronic acid, 14 days
[47] = No feces, sugar 100 mmol/L, no phenylboronic acid, 21 days

## O=C(CO)[C@@H](O)[C@H](O)[C@H](O)CO [Fructose, fructose]
[1]
  Hb concentration: 297 µg/L
  Recovery ratio with respect to Hb concentration after 0 days: 100%
[2]
  Hb concentration: 294 µg/L
  Recovery ratio with respect to Hb concentration after 0 days: 99%
[3]
  Hb concentration: 285 µg/L
  Recovery ratio with respect to Hb concentration after 0 days: 96%
[4]
  Hb concentration: 280 µg/L
  Recovery ratio with respect to Hb concentration after 0 days: 94%
[5]
  Hb concentration: 287 µg/L
  Recovery ratio with respect to Hb concentration after 0 days: 100%
[6]
  Hb concentration: 276 µg/L
  Recovery ratio with respect to Hb concentration after 0 days: 96%
[7]
  Hb concentration: 247 µg/L
  Recovery ratio with respect to Hb concentration after 0 days: 86%
[8]
  Hb concentration: 228 µg/L
  Recovery ratio with respect to Hb concentration after 0 days: 79%
[9]
  Hb concentration: 285 µg/L
  Recovery ratio with respect to Hb concentration after 0 days: 100%
[10]
  Hb concentration: 127 µg/L
  Recovery ratio with respect to Hb concentration after 0 days: 45%
[11]
  Hb concentration: 85 µg/L
  Recovery ratio with respect to Hb concentration after 0 days: 30%
[12]
  Hb concentration: 81 µg/L
  Recovery ratio with respect to Hb concentration after 0 days: 28%
[13]
  Hb concentration: 270 µg/L
  Recovery ratio with respect to Hb concentration after 0 days: 100%
[14]
  Hb concentration: 275 µg/L
  Recovery ratio with respect to Hb concentration after 0 days: 102%
[15]
  Hb concentration: 243 µg/L
  Recovery ratio with respect to Hb concentration after 0 days: 90%
[16]
  Hb concentration: 222 µg/L
  Recovery ratio with respect to Hb concentration after 0 days: 82%
[17]
  Hb concentration: 280 µg/L
  Recovery ratio with respect to Hb concentration after 0 days: 100%
[18]
  Hb concentration: 264 µg/L
  Recovery ratio with respect to Hb concentration after 0 days: 94%
[19]
  Hb concentration: 235 µg/L
  Recovery ratio with respect to Hb concentration after 0 days: 84%
[20]
  Hb concentration: 212 µg/L
  Recovery ratio with respect to Hb concentration after 0 days: 76%
[21]
  Hb concentration: 273 µg/L
  Recovery ratio with respect to Hb concentration after 0 days: 100%
[22]
  Hb concentration: 100 µg/L
  Recovery ratio with respect to Hb concentration after 0 days: 37%
[23]
  Hb concentration: 56 µg/L
  Recovery ratio with respect to Hb concentration after 0 days: 21%
[24]
  Hb concentration: 35 µg/L
  Recovery ratio with respect to Hb concentration after 0 days: 13%
[25]
  Hb concentration: 272 µg/L
  Recovery ratio with respect to Hb concentration after 0 days: 100%
[26]
  Hb concentration: 238 µg/L
  Recovery ratio with respect to Hb concentration after 0 days: 88%
[27]
  Hb concentration: 218 µg/L
  Recovery ratio with respect to Hb concentration after 0 days: 80%
[28]
  Hb concentration: 203 µg/L
  Recovery ratio with respect to Hb concentration after 0 days: 75%
[29]
  Hb concentration: 276 µg/L
  Recovery ratio with respect to Hb concentration after 0 days: 100%
[30]
  Hb concentration: 244 µg/L
  Recovery ratio with respect to Hb concentration after 0 days: 88%
[31]
  Hb concentration: 222 µg/L
  Recovery ratio with respect to Hb concentration after 0 days: 80%
[32]
  Hb concentration: 204 µg/L
  Recovery ratio with respect to Hb concentration after 0 days: 74%
[33]
  Hb concentration: 265 µg/L
  Recovery ratio with respect to Hb concentration after 0 days: 100%
[34]
  Hb concentration: 83 µg/L
  Recovery ratio with respect to Hb concentration after 0 days: 31%
[35]
  Hb concentration: 41 µg/L
  Recovery ratio with respect to Hb concentration after 0 days: 15%
[36]
  Hb concentration: 39 µg/L
  Recovery ratio with respect to Hb concentration after 0 days: 15%
[37]
  Hb concentration: 286 µg/L
  Recovery ratio with respect to Hb concentration after 0 days: 100%
[38]
  Hb concentration: 255 µg/L
  Recovery ratio with respect to Hb concentration after 0 days: 89%
[39]
  Hb concentration: 261 µg/L
  Recovery ratio with respect to Hb concentration after 0 days: 91%
[40]
  Hb concentration: 275 µg/L
  Recovery ratio with respect to Hb concentration after 0 days: 96%
No feces, sugar 100 mmol/L + phenylboronic acid 15 mmol/L, 0 days
  Recovery ratio with respect to Hb concentration after 0 days: 100%
[41]
  Hb concentration: 245 µg/L
  Recovery ratio with respect to Hb concentration after 0 days: 87%
[42]
  Hb concentration: 251 µg/L
  Recovery ratio with respect to Hb concentration after 0 days: 89%
[43]
  Hb concentration: 262 µg/L
  Recovery ratio with respect to Hb concentration after 0 days: 93%
[44]
  Hb concentration: 250 µg/L
  Recovery ratio with respect to Hb concentration after 0 days: 100%
[45]
  Hb concentration: 215 µg/L
  Recovery ratio with respect to Hb concentration after 0 days: 86%
[46]
  Hb concentration: 196 µg/L
  Recovery ratio with respect to Hb concentration after 0 days: 78%
[47]
  Hb concentration: 177 µg/L
  Recovery ratio with respect to Hb concentration after 0 days: 71%
Sugar 100 mmol/L, preservation solutions containing no phenylboronic acid
  recovery ratio of hemoglobin in the samples containing fecal specimens: does not improve
Sugar 50 or 100 mmol/L further added to phenylboronic acid 15 mmol/L, Feces 1, Feces 2, Feces 3
  recovery ratio of hemoglobin in the sample: further improved

Source: US12215140B2, “Method of stabilizing protein contained in specimen and solution for stabilizing protein contained in specimen” (EIKEN KAGAKU KABUSHIKI KAISHA, priority 2018, dated 2025)
